Experimental data taken from the NIST ThermoML archive (doi:10.1021/je700260f).
Numbers after ± are expanded uncertainties.

Details: 333.15 K, Liquid, Vibrating tube method

FC(C(F)(F)F)C(F)(F)F [1,1,1,2,3,3,3-heptafluoropropane]
Details | mass density [kg/m3]
14224 kPa | 1356.7 ± 1.5
14266 kPa | 1357 ± 1.5
14291 kPa | 1357.2 ± 1.5
14328 kPa | 1357.4 ± 1.5
14371 kPa | 1357.7 ± 1.5
14400 kPa | 1357.8 ± 1.5
14435 kPa | 1358.2 ± 1.5
14458 kPa | 1358.3 ± 1.5
14483 kPa | 1358.5 ± 1.5
14514 kPa | 1358.6 ± 1.5
14545 kPa | 1358.8 ± 1.5
14575 kPa | 1359.1 ± 1.5
14609 kPa | 1359.3 ± 1.5
14631 kPa | 1359.4 ± 1.5
14665 kPa | 1359.7 ± 1.5
14691 kPa | 1359.8 ± 1.5
14717 kPa | 1360 ± 1.5
14746 kPa | 1360.2 ± 1.5
14768 kPa | 1360.3 ± 1.5
14798 kPa | 1360.5 ± 1.5
15205 kPa | 1363.1 ± 1.5
15236 kPa | 1363.4 ± 1.5
15290 kPa | 1363.8 ± 1.5
15717 kPa | 1366.6 ± 1.5
15745 kPa | 1366.7 ± 1.5
15780 kPa | 1366.8 ± 1.5
15812 kPa | 1367.1 ± 1.5
15836 kPa | 1367.2 ± 1.5
15868 kPa | 1367.4 ± 1.5
15899 kPa | 1367.6 ± 1.5
15926 kPa | 1367.8 ± 1.5
16438 kPa | 1370.9 ± 1.6
16464 kPa | 1371.3 ± 1.6
16489 kPa | 1371.4 ± 1.6
16519 kPa | 1371.5 ± 1.6
16626 kPa | 1372.2 ± 1.6
16683 kPa | 1372.5 ± 1.6
16707 kPa | 1372.8 ± 1.6
16730 kPa | 1372.7 ± 1.6
16761 kPa | 1373 ± 1.6
17906 kPa | 1379.9 ± 1.6
17932 kPa | 1379.9 ± 1.6
17962 kPa | 1380.3 ± 1.6
17993 kPa | 1380.3 ± 1.6
18015 kPa | 1380.5 ± 1.6
18050 kPa | 1380.7 ± 1.6
18080 kPa | 1380.9 ± 1.6
18108 kPa | 1381 ± 1.6
19508 kPa | 1388.9 ± 1.6
19537 kPa | 1389 ± 1.6
19563 kPa | 1389.2 ± 1.6
19597 kPa | 1389.4 ± 1.6
19624 kPa | 1389.6 ± 1.6
19650 kPa | 1389.8 ± 1.6
19677 kPa | 1389.8 ± 1.6
20749 kPa | 1395.7 ± 1.6
20777 kPa | 1395.9 ± 1.6
20814 kPa | 1396 ± 1.6
20842 kPa | 1396.2 ± 1.6
20873 kPa | 1396.4 ± 1.6
20901 kPa | 1396.5 ± 1.6
20931 kPa | 1396.6 ± 1.6
20957 kPa | 1396.9 ± 1.6
20979 kPa | 1396.9 ± 1.6
21008 kPa | 1397 ± 1.6
21033 kPa | 1397.1 ± 1.6
21063 kPa | 1397.3 ± 1.6
21088 kPa | 1397.5 ± 1.6
21120 kPa | 1397.5 ± 1.6
21148 kPa | 1397.8 ± 1.6
21172 kPa | 1397.9 ± 1.6
21205 kPa | 1398 ± 1.6
21229 kPa | 1398.2 ± 1.6
21270 kPa | 1398.3 ± 1.6
21296 kPa | 1398.6 ± 1.6
21327 kPa | 1398.7 ± 1.6
21360 kPa | 1398.9 ± 1.6
21397 kPa | 1399.2 ± 1.6
21645 kPa | 1400.3 ± 1.6
21675 kPa | 1400.5 ± 1.6
21704 kPa | 1400.7 ± 1.6
21740 kPa | 1400.8 ± 1.6
21764 kPa | 1401 ± 1.6
21831 kPa | 1401.4 ± 1.6
21897 kPa | 1401.7 ± 1.6
21932 kPa | 1401.8 ± 1.6
22798 kPa | 1406.2 ± 1.6
22829 kPa | 1406.3 ± 1.6
22856 kPa | 1406.5 ± 1.6
22880 kPa | 1406.7 ± 1.6
22918 kPa | 1406.7 ± 1.6
22954 kPa | 1407 ± 1.6
23854 kPa | 1411.4 ± 1.6
25147 kPa | 1417.6 ± 1.6
25181 kPa | 1417.7 ± 1.6
25224 kPa | 1417.9 ± 1.6
25251 kPa | 1417.9 ± 1.6
25279 kPa | 1418.1 ± 1.6
25312 kPa | 1418.3 ± 1.6
25354 kPa | 1418.4 ± 1.6
25387 kPa | 1418.6 ± 1.6
25415 kPa | 1418.7 ± 1.6
26099 kPa | 1421.9 ± 1.6
26128 kPa | 1422 ± 1.6
26167 kPa | 1422.2 ± 1.6
26201 kPa | 1422.2 ± 1.6
26234 kPa | 1422.6 ± 1.6
26257 kPa | 1422.6 ± 1.6
26527 kPa | 1423.9 ± 1.6
26563 kPa | 1423.8 ± 1.6
26596 kPa | 1424.2 ± 1.6
26625 kPa | 1424.4 ± 1.6
26654 kPa | 1424.4 ± 1.6
26692 kPa | 1424.5 ± 1.6
26726 kPa | 1424.8 ± 1.6
26760 kPa | 1424.8 ± 1.6
26801 kPa | 1425 ± 1.6
26831 kPa | 1425.1 ± 1.6
26860 kPa | 1425.4 ± 1.6
26889 kPa | 1425.4 ± 1.6
26914 kPa | 1425.6 ± 1.6
26943 kPa | 1425.8 ± 1.6
26972 kPa | 1425.8 ± 1.6
26999 kPa | 1425.9 ± 1.6
27023 kPa | 1426 ± 1.6
27056 kPa | 1426.1 ± 1.6
27081 kPa | 1426.2 ± 1.6
27119 kPa | 1426.4 ± 1.6
27151 kPa | 1426.6 ± 1.6
27180 kPa | 1426.6 ± 1.6
27621 kPa | 1428.6 ± 1.6
27651 kPa | 1428.9 ± 1.6
27681 kPa | 1428.9 ± 1.6
27707 kPa | 1428.9 ± 1.6
27750 kPa | 1429.2 ± 1.6
27783 kPa | 1429.3 ± 1.6
27818 kPa | 1429.5 ± 1.6
27852 kPa | 1429.7 ± 1.6
27890 kPa | 1429.9 ± 1.6
27916 kPa | 1430 ± 1.6
27950 kPa | 1430.1 ± 1.6
27975 kPa | 1430.2 ± 1.6
28484 kPa | 1432.4 ± 1.6
28514 kPa | 1432.5 ± 1.6
28543 kPa | 1432.6 ± 1.6
28577 kPa | 1432.8 ± 1.6
28602 kPa | 1432.9 ± 1.6
28633 kPa | 1433 ± 1.6
28668 kPa | 1433.1 ± 1.6
28698 kPa | 1433.3 ± 1.6
28730 kPa | 1433.3 ± 1.6
28761 kPa | 1433.5 ± 1.6
28792 kPa | 1433.6 ± 1.6
28833 kPa | 1433.9 ± 1.6
28866 kPa | 1434 ± 1.6
28892 kPa | 1434.1 ± 1.6
28917 kPa | 1434.2 ± 1.6
28956 kPa | 1434.4 ± 1.6
28982 kPa | 1434.4 ± 1.6
29008 kPa | 1434.6 ± 1.6
29042 kPa | 1434.7 ± 1.6
29069 kPa | 1434.8 ± 1.6
29104 kPa | 1434.9 ± 1.6
29132 kPa | 1435.2 ± 1.6
29171 kPa | 1435.3 ± 1.7
29206 kPa | 1435.5 ± 1.7
29233 kPa | 1435.5 ± 1.7
29267 kPa | 1435.7 ± 1.7
29293 kPa | 1435.7 ± 1.7
29326 kPa | 1435.9 ± 1.7
29364 kPa | 1436.1 ± 1.7
29400 kPa | 1436.2 ± 1.7
29434 kPa | 1436.4 ± 1.7
29694 kPa | 1437.4 ± 1.7
29758 kPa | 1437.7 ± 1.7
30086 kPa | 1439 ± 1.7
30149 kPa | 1439.4 ± 1.7
30189 kPa | 1439.6 ± 1.7
30299 kPa | 1440 ± 1.7
30336 kPa | 1440.1 ± 1.7
30372 kPa | 1440.3 ± 1.7
30402 kPa | 1440.3 ± 1.7
30439 kPa | 1440.7 ± 1.7
30461 kPa | 1440.7 ± 1.7
30493 kPa | 1440.8 ± 1.7
30521 kPa | 1440.9 ± 1.7
30557 kPa | 1441.1 ± 1.7
30586 kPa | 1441.1 ± 1.7
30623 kPa | 1441.3 ± 1.7
30650 kPa | 1441.3 ± 1.7
30690 kPa | 1441.5 ± 1.7
30717 kPa | 1441.7 ± 1.7
30753 kPa | 1441.8 ± 1.7
30780 kPa | 1441.9 ± 1.7
30816 kPa | 1442.1 ± 1.7
30843 kPa | 1442 ± 1.7
30884 kPa | 1442.3 ± 1.7
30925 kPa | 1442.4 ± 1.7
32911 kPa | 1450.4 ± 1.7
32943 kPa | 1450.4 ± 1.7
32981 kPa | 1450.6 ± 1.7
33028 kPa | 1450.9 ± 1.7
33066 kPa | 1451 ± 1.7
33093 kPa | 1451.1 ± 1.7
33132 kPa | 1451.1 ± 1.7
